{
  "source": "patent US12098362B2",
  "about": "“Uses of Daldinia sp. or volatile organic compounds derived therefrom” (THE STATE OF ISRAEL, MINISTRY OF AGRICULTURE & RURAL …, priority 2015, dated 2024)",
  "key": {"Aspergillus niger": {"system": "Aspergillus niger", "assay": "Chemical mixtures bioactivity test in sealed Petri dish", "type": "cell-based", "settings": "single compound", "procedure": "(§1) All chemical compounds were purchased from Sigma (Rehovot, Israel) and were of the highest purity available. The bioactivity of the mixtures combined on the VOCs identified, was determined as follows: Petri dishes (90 mm, 80 mL air volume) containing 15 mL of media (PDA amended with 12 μg/mL tetracycline) were inoculated (triplicates, 2 plugs each) with the test fungi A. alternata and B. cinerea (in the same plate), P. digitatum and A. niger (in separate plates). A cup of an Eppendorf tube was placed in the middle of the plate to which increasing volumes (0-200 μL) of the mixture was added. Then, the plates were sealed with parafilm and incubated at room temperature for two days before comparing the growth of the test fungi in those plates to control plates in the absence of the mixture. The ability of two mixtures: Mixture A and Mixture B to control other plant pathogenic fungi was determined as described above except that the concentration of the mixture was constant (1 mL/L) and the growth inhibition was estimated after 6 days. The viability of the test fungi after exposure to the mixtures was examined as described for D. concentrica.\n(§2) The activity of each chemical component of the mixture was examined separately as described for the mixtures. […]"}, "Penicillium digitatum": {"system": "Penicillium digitatum", "assay": "Chemical mixtures bioactivity test in sealed Petri dish", "type": "cell-based", "settings": "single compound", "procedure": "as §1, §2"}, "M. javanica J2 larvae": {"system": "M. javanica J2 larvae", "assay": "Phenotype of second stage juveniles under a stereomicroscope after exposure", "type": "in vivo, Meloidogyne javanica", "settings": "0.05 mL/L preloaded to 25 mg of perlite particles; 48 hours at 25° C.", "procedure": "FIGS. 20A-D show second stage juveniles' phenotype following exposure to D. concentrica culture, synthetic mixture, and the compound 4-heptanone. The nematodes were exposed to each condition for 48 hours at 25° C. in the dark before visualization. FIG. 20A. Control—non treated nematodes. FIG. 20B. Nematodes exposed to three D. concentrica culture plates (50 mm in diameter with 5 mL growth medium) pre-grown for 4 days. FIG. 20C. Nematodes exposed to 0.25 mL/L of synthetic mixture preloaded to 125 mg of perlite particles. FIG. 20D. Nematodes exposed to 0.05 mL/L of the compound 4-heptanone preloaded to 25 mg of perlite particles. The bar indicates […].\nThe effects of D. concentrica, synthetic mixture and the pure compound 4-heptanone were also examined visually under a stereomicroscope. The results are presented in FIGS. 20A-D wherein FIG. 20A represents non-treated nematodes; FIG. 20B represents nematodes exposed to three D. concentrica culture plates (50 mm in diameter with 5 mL growth medium) pre-grown for 4 days; FIG. 20C represents nematodes exposed to 0.25 mL/L of synthetic mixture preloaded to 125 mg of perlite particles; FIG. 20D represents nematodes exposed to 0.05 mL/L of the compound 4-heptanone preloaded to 25 mg of perlite particles."}, "[1]": {"system": "A. niger, B. cinerea, A. alternata, and P. digitatum", "assay": "Ability of commercially available VOC compounds to control growth of four test fungi", "type": "cell-based", "settings": "single commercially available compound", "procedure": "as §1, §2"}},
  "data": [
    {"compound": "methyl-1,4-cyclohexadiene", "values": [
      {"measurement": "growth inhibition of A. niger", "setting": "Aspergillus niger", "value": 10.8, "unit": "%"},
      {"measurement": "growth inhibition of P. digitatum", "setting": "Penicillium digitatum", "value": 3.1, "unit": "%"}
    ]},
    {"compound": "CCCC(=O)CCC", "note": "[Mixture 4-heptanone, 4-heptanone]", "values": [
      {"measurement": "nematode phenotype (body shape, viability)", "setting": "M. javanica J2 larvae", "value": "most of the nematodes demonstrated the typical straight body shape with nearly no curved appearance"}
    ]},
    {"compound": "OCCc1ccccc1", "note": "[phenyl ethyl alcohol]", "values": [
      {"measurement": "ability to control the growth of A. niger, B. cinerea, A. alternata, and P. digitatum", "setting": "[1]", "value": "failed to inhibit fungal growth"}
    ]},
    {"compound": "COc1cc2ccccc2cc1O", "note": "[3-methoxy-2-naphthol]", "values": [
      {"measurement": "ability to control the growth of A. niger, B. cinerea, A. alternata, and P. digitatum", "setting": "[1]", "value": "failed to inhibit fungal growth"}
    ]}
  ]
}
